Experiments:
Vero E6 cells = experiment: Cytotoxicity / cell viability in Vero E6 cells; format: cell-based; details: ebselen: at ranges slightly higher than EC50
SARS-CoV-2 [1] = experiment: Reduction of SARS-CoV-2 viral load in Vero E6 cells (image based assay of Jin et al.); format: cell-based; details: Severe acute respiratory syndrome coronavirus 2, Vero C1008, read-out: EC50, reduction in viral load in Vero E6 cells, SARS-CoV-2; ebselen 100 nM to 1000 μM in DMSO or EtOH, remdesivir 1 nM to 10 μM
SARS-CoV-2 [2] = experiment: Hamster model of SARS-CoV-2 disease transmission and progression, viral load (PFU); format: in vivo, Golden Syrian Hamsters; details: 15 mg/kg
Procedure: 24 hours prior to nasal inoculation with SARS-CoV-2, Golden Syrian Hamsters were dosed with ebselen, saline and remdesivir at 15 mg/kg. Samples were taken from nares (PFU/swab) on days 1, 2 and 3, and from the nasal turbinates and cranial & caudal lung tissue (PFU/100 mg) on day 7.

[3] = human, in vivo, iv

## CCC(CC)COC(=O)[C@H](C)N[P@](=O)(OC[C@H]1O[C@@](C#N)(c2ccc3c(N)ncnn23)[C@H](O)[C@@H]1O)Oc1ccccc1 [remdesivir]
Vero E6 cells
  effect on cell viability: no effect on cell viability
SARS-CoV-2 [1]
  EC50: 7 µM
SARS-CoV-2 [2]; 24 hours prior to nasal inoculation, saline 2.7E+04
  PFU/swab (nares) Day 1: 1.1E+04 PFU/swab
SARS-CoV-2 [2]; 24 hours prior to nasal inoculation, saline 5.5E+02
  PFU/swab (nares) Day 3: 3.8E+03 PFU/swab
SARS-CoV-2 [2]; 24 hours prior to nasal inoculation, saline 7.5E+03
  PFU/swab (nares) Day 2: 3.1E+03 PFU/swab
SARS-CoV-2 [2]; day 7, saline 4.9E+06
  PFU/100 mg Cranial lung: 4.4E+06 PFU/100 mg
SARS-CoV-2 [2]; day 7, saline 5.5E+07
  PFU/100 mg Turbinates: 4.0E+02 PFU/100 mg
SARS-CoV-2 [2]; day 7, saline 6.1E+06
  PFU/100 mg Caudal lung: 1.2E+07 PFU/100 mg

## NC[C@H]1O[C@H](O[C@H]2[C@H](O)[C@@H](O[C@H]3O[C@H](CO)[C@@H](O)[C@H](N)[C@H]3O)[C@H](N)C[C@@H]2N)[C@H](N)C[C@@H]1O [tobramycin]
[3]; 4 weeks
  % Responders (Bilateral), Conv + SRO: 33%
  % Responders (Bilateral), Conventional: 0%
  % Responders (Bilateral), DPOAE: 40%
  % Responders (Bilateral), SRO: 33%
  % Responders (Bilateral), WINT: 7%
  % Responders (Unilateral), Conv + SRO: 60%
  % Responders (Unilateral), Conventional: 27%
  % Responders (Unilateral), DPOAE: 40%
  % Responders (Unilateral), SRO: 53%
  % Responders (Unilateral), WINT: 33%
  % Responders, Conv + SRO: 93%
  % Responders, DPOAE: 80%
  % Responders, SRO: 87%
  % Responders, TFI: 8%
  % Responders, TL: 15%
  % Responders, VSS: 8%
  % Responders, WINT: 40%
[3]; 4 weeks post-treatment
  % Responders, Conventional: 27%
